In the assay the test system is fast-spiking interneurons (FSI). In words: Hippocampal brain slice voltage clamp recording, outward K+ current from FSI. Type of assay: cell-based, rat. As to conditions: 10 μM; for Outward current in presence of compound relative to baseline: step to 0 mV, baseline 100%. Here is the method:
Male Sprague Dawley rats (18˜24 days old) from Shanghai Laboratory Animal Center (Shanghai, China) were used for brain slice experiments. They were housed in groups of five in controlled conditions (temperature of 23±3° C., humidity of 40-70%, and 12:12 light-dark cycle with lights on at 5:00 am) and free access to food and water. All procedures were conducted in agreement with the guideline of Institutional Animal Care and Use Committee at ChemPartner. Ethical approval was obtained by the The Danish Animal Experimentation Inspectorate (journal no. 2014 15 0201 00339).
Animals were decapitated by a guillotine and their brains quickly removed and placed in ice-cold modified artificial cerebral spinal fluid (ACSF) containing (in mM): 110 sucrose, 60 NaCl, 3 KCl, 5 glucose, 28 NaHCO3, 1.25 NaH2PO4, 0.5 CaCl2 and 7 MgCl2, aerated with 95% O2/5% CO2. The brains were block-trimmed and glued onto the stage of a vibratome (VT1200S, Leica Microsystems Inc., Bannockburn, Ill., USA). Parasagittal hippocampal slices (300 μm) were cut and incubated in the regular carbogenated ACSF containing (in mM): 119 NaCl, 2.5 KCl, 1.2 Na2HPO4, 25 NaHCO3, 2.5 CaCl2, 1.3 MgCl2, 10 glucose at 35° C. for the first 60 min and then transferred to room temperature prior to recordings.
In the hippocampal CA1 pyramidal cell layer, fast-spiking interneurons (FSI) or pyramidal (PYR) cells were visualized using differential interference contrast-infrared (DIC-IR)-assisted microscopy and whole-cell patch clamp recordings performed using an Axon Multiclamp 700B amplifier (Molecular Devices, Union City, Calif.). FSI were selected based on non-pyramidal shape and multipolar dendrites. […]
Whole cell patch clamp recordings in voltage clamp mode were used to study the outward K^+ current from FSI or PYR cells. […] Outward K^+ current was recorded in the presence of 1 μM TTX and 10 μM DNQX in the ACSF to inhibit voltage-gated Na^+ channels and AMPA channels, respectively. […] For all recordings, the access resistance was monitored throughout the experiments. […]

With `Cc1ccc(S(=O)(=O)n2ccc(C(=O)NCc3ncco3)c2)cc1` [Compound 86, 1-(4-methylbenzene-1-sulfonyl)-N-[(1,3-oxazol-2-yl)methyl]-1H-pyrrole-3-carboxamide], the “Outward current in presence of compound relative to baseline” value is recorded as 121±2%.

Regarding `Cc1cnc(CNC(=O)c2ccn(S(=O)(=O)c3ccc(F)cc3C)c2)cn1` [Compound 90, 1-(4-fluoro-2-methylbenzene-1-sulfonyl)-N-[(5-methylpyrazin-2-yl)methyl]-1H-pyrrole-3-carboxamide], the “Reversibility of compound-mediated increase in outward K+ current (Wash)” value is given as “largely reversible” and the “Outward current in presence of compound relative to baseline” value is listed as 144±4%.

The record behind these values is patent US20200131156A1, “ARYLSULFONYLPYROLECARBOXAMIDE DERIVATIVES AS Kv3 POTASSIUM CHANNEL ACTIVATORS” (H. Lundbeck A/S, priority 2018, published 2020).
